In ChEMBL document CHEMBL1201862, “PubChem BioAssay data set” (2004):
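Where inhibition never reached the appropriate level, the endpoint shown equals the highest concentration tested. Otherwise, values were interpolated linearly from a five-concentration, 48-hour dose response in 96-well plates. GI50: concentration for 50% inhibition of growth.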 Activity calls are given as the source filed them. No stated cut-off is given here; in the data, active = GI50 up to about 1.1 µM and inactive = higher.

What was measured:
Assay in all cases: inhibition of tumour cell growth, NCI panel, 48 h
HCT-15 = test system: HCT-15
NCI-H23 = test system: NCI-H23
SK-OV-3 = test system: SK-OV-3
HOP-62 = test system: HOP-62
IGROV-1 = test system: IGROV-1
U-251 = test system: U-251
SR = test system: SR
DU-145 = test system: DU-145
SK-MEL-5 = test system: SK-MEL-5
RPMI-8226 = test system: RPMI-8226
ACHN = test system: ACHN
MOLT-4 = test system: MOLT-4
UACC-62 = test system: UACC-62
PC-3 = test system: PC-3
SNB-75 = test system: SNB-75
NCI/ADR-RES = test system: NCI/ADR-RES
NCI-H522 = test system: NCI-H522
UO-31 = test system: UO-31
HOP-92 = test system: HOP-92
Malme-3M = test system: Malme-3M

| SMILES | GI50 (HCT-15) | GI50 (NCI-H23) | GI50 (SK-OV-3) | GI50 (HOP-62) | GI50 (IGROV-1) | GI50 (U-251) | GI50 (SR) | GI50 (DU-145) | GI50 (SK-MEL-5) | GI50 (RPMI-8226) | GI50 (ACHN) | GI50 (MOLT-4) | GI50 (UACC-62) | GI50 (PC-3) | GI50 (SNB-75) | GI50 (NCI/ADR-RES) | GI50 (NCI-H522) | GI50 (UO-31) | GI50 (HOP-92) | GI50 (Malme-3M) |
| --- | --- | --- | --- | --- | --- | --- | --- | --- | --- | --- | --- | --- | --- | --- | --- | --- | --- | --- | --- | --- |
| Clc1ccccc1C(Nc1ncccn1)Nc1ncccn1 | > 100 µM | > 100 µM (inactive) | > 100 µM (inactive) | > 100 µM (inactive) | > 100 µM (inactive) | > 100 µM (inactive) | 8.15 µM (inactive) | > 100 µM (inactive) | > 100 µM (inactive) | > 100 µM (inactive) | > 100 µM (inactive) | > 100 µM (inactive) | > 100 µM (inactive) | > 100 µM (inactive) | 47 µM (inactive) | > 100 µM (inactive) | > 100 µM (inactive) | > 100 µM (inactive) | > 100 µM (inactive) | – |
| C[C@]12CC[C@H]3[C@@H](CCC4=C(Br)C(=O)C=C[C@@]43O)[C@@H]1CCC2=O | 15.6 µM | 17.8 µM (inactive) | > 100 µM (inactive) | 50 µM (inactive) | 36 µM (inactive) | 52.6 µM (inactive) | 8.34 µM (inactive) | 20.9 µM (inactive) | 28.2 µM (inactive) | 33.7 µM (inactive) | 40.6 µM (inactive) | 25.2 µM (inactive) | 32.4 µM (inactive) | 37.8 µM (inactive) | – | 27.2 µM (inactive) | 13 µM (inactive) | 42.2 µM (inactive) | 32.2 µM (inactive) | 93.5 µM (inactive) |
| CCOC(=O)NNC(=O)NCCNC(=O)NNC(=O)OCC | > 100 µM | > 100 µM (inactive) | > 100 µM (inactive) | – | – | > 100 µM (inactive) | > 100 µM (inactive) | > 100 µM (inactive) | > 100 µM (inactive) | > 100 µM (inactive) | – | > 100 µM (inactive) | > 100 µM (inactive) | > 100 µM (inactive) | > 100 µM (inactive) | > 100 µM (inactive) | > 100 µM (inactive) | > 100 µM (inactive) | – | > 100 µM (inactive) |
| COC(=O)C1Cc2cc3c(cc2C1)CCC3 | > 100 µM | > 100 µM (inactive) | > 100 µM (inactive) | > 100 µM (inactive) | > 100 µM (inactive) | > 100 µM (inactive) | > 100 µM (inactive) | > 100 µM (inactive) | > 100 µM (inactive) | > 100 µM (inactive) | > 100 µM (inactive) | > 100 µM (inactive) | > 100 µM (inactive) | > 100 µM (inactive) | > 100 µM (inactive) | > 100 µM (inactive) | – | > 100 µM (inactive) | 34 µM (inactive) | > 100 µM (inactive) |
| O=c1cnn(C2OC(CO)C(O)C(F)C2O)c(=O)[nH]1 (stereo not given) | > 100 µM | > 100 µM (inactive) | > 100 µM (inactive) | – | > 100 µM (inactive) | > 100 µM (inactive) | 8.55 µM (inactive) | > 100 µM (inactive) | > 100 µM (inactive) | > 100 µM (inactive) | > 100 µM (inactive) | – | > 100 µM (inactive) | > 100 µM (inactive) | – | > 100 µM (inactive) | > 100 µM (inactive) | > 100 µM (inactive) | > 100 µM (inactive) | > 100 µM (inactive) |
| C[N+]12C=CC=C1C(N1CCCC1)c1sc(-c3ccc(Cl)cc3)cc12 (stereo not given) | 30.5 µM | – | 18.7 µM (inactive) | 17.5 µM (inactive) | 16.9 µM (inactive) | 12.1 µM (inactive) | 11.6 µM (inactive) | 16.9 µM (inactive) | 17.9 µM (inactive) | 10.6 µM (inactive) | 46 µM (inactive) | 16.9 µM (inactive) | 15.1 µM (inactive) | 16.3 µM (inactive) | 11.3 µM (inactive) | 36.9 µM (inactive) | 10.4 µM (inactive) | 33 µM (inactive) | – | 15.6 µM (inactive) |
| CC(=O)/C(=C\c1ccc(Cl)c(Cl)c1)C(=O)C(C)CN(C)C (stereo not given) | 2.33 µM | 13.4 µM (inactive) | 16.5 µM (inactive) | 19.1 µM (inactive) | 2.07 µM (inactive) | 3.26 µM (inactive) | 1.82 µM (inactive) | 4.43 µM (inactive) | 11.9 µM (inactive) | 1.32 µM (inactive) | 5.24 µM (inactive) | 2.19 µM (inactive) | – | 4.62 µM (inactive) | – | 13.1 µM (inactive) | – | 4.01 µM (inactive) | 2.26 µM (inactive) | 8.15 µM (inactive) |
| COC1=C(OC)C(=O)C(Cc2c(-c3ccccc3)nc3sc(Cl)cn23)=C(C)C1=O | 14.5 µM | 17.8 µM (inactive) | 18.5 µM (inactive) | 19.5 µM (inactive) | 14.9 µM (inactive) | 18.5 µM (inactive) | 22.9 µM (inactive) | 20 µM (inactive) | 15.2 µM (inactive) | 13.5 µM (inactive) | 16 µM (inactive) | 1.96 µM (inactive) | 11.9 µM (inactive) | 16.6 µM (inactive) | – | 17.9 µM (inactive) | 13.6 µM (inactive) | 15.8 µM (inactive) | – | 16.5 µM (inactive) |
| O=C1c2ccccc2C(=O)c2c1c1cc(O)ccc1n2Cc1ccc(Cl)cc1Cl | 5.66 µM | 7.23 µM (inactive) | 1.75 µM (inactive) | 2.61 µM (inactive) | 6.98 µM (inactive) | 3.46 µM (inactive) | 3.61 µM (inactive) | 8.13 µM (inactive) | 17.2 µM (inactive) | 7.18 µM (inactive) | – | 15.3 µM (inactive) | 7.66 µM (inactive) | 1.61 µM (inactive) | – | 3.08 µM (inactive) | – | 19.1 µM (inactive) | – | 22.8 µM (inactive) |
| CCC1(CC)C(=O)OC(=O)C1(CC)CC | > 100 µM | > 100 µM (inactive) | > 100 µM (inactive) | > 100 µM (inactive) | > 100 µM (inactive) | > 100 µM (inactive) | > 100 µM (inactive) | > 100 µM (inactive) | > 100 µM (inactive) | > 100 µM (inactive) | > 100 µM (inactive) | > 100 µM (inactive) | > 100 µM (inactive) | > 100 µM (inactive) | > 100 µM (inactive) | > 100 µM (inactive) | > 100 µM (inactive) | > 100 µM (inactive) | – | – |
| CC1CC(C(=O)OC2OC(COC3OC(CO)C(OC4OC(C)C(O)C(O)C4O)C(O)C3O)C(O)C(O)C2O)C2CCC3(C)C(=CCC4(C)C3CCC3C(C)(CO)C(O)C(O)CC34C)C2C1C (stereo not given) | > 100 µM | 16.3 µM (inactive) | 49.1 µM (inactive) | 17.7 µM (inactive) | 16.9 µM (inactive) | 17.5 µM (inactive) | 17.9 µM (inactive) | 33.5 µM (inactive) | 18.7 µM (inactive) | 21.4 µM (inactive) | > 10 µM (inactive) | 19.6 µM (inactive) | 17.7 µM (inactive) | 29.5 µM (inactive) | 16.9 µM (inactive) | > 100 µM (inactive) | 13.7 µM (inactive) | > 100 µM (inactive) | 17.4 µM (inactive) | – |
| CC1=NNC(=O)C1C1CC(c2c[nH]c3ccccc23)=NNC1=S (stereo not given) | 39.7 µM | 64 µM (inactive) | > 100 µM (inactive) | > 100 µM (inactive) | – | > 100 µM (inactive) | – | > 100 µM (inactive) | > 100 µM (inactive) | 36.2 µM (inactive) | > 100 µM (inactive) | 37.2 µM (inactive) | > 100 µM (inactive) | > 100 µM (inactive) | > 100 µM (inactive) | > 100 µM (inactive) | > 100 µM (inactive) | 30.6 µM (inactive) | > 100 µM (inactive) | > 100 µM (inactive) |
| Cc1ccc(/C(=C\C(=O)C(=O)NC23CC4CC(CC(C4)C2)C3)Sc2ccccc2)cc1 | > 10 µM | > 10 µM (inactive) | > 10 µM (inactive) | > 10 µM (inactive) | > 10 µM (inactive) | > 10 µM (inactive) | > 10 µM (inactive) | > 10 µM (inactive) | > 10 µM (inactive) | 9.02 µM (inactive) | > 10 µM (inactive) | 4.63 µM (inactive) | – | 4.31 µM (inactive) | > 10 µM (inactive) | > 10 µM (inactive) | > 10 µM (inactive) | > 10 µM (inactive) | – | > 10 µM (inactive) |
| C[C@]12CCC3c4ccc(O)cc4CC[C@H]3C1CC(=O)N(CCN1CCCC1)C2=O (stereo not given in full) | > 10 µM | > 10 µM (inactive) | > 10 µM (inactive) | > 10 µM (inactive) | > 10 µM (inactive) | > 10 µM (inactive) | > 10 µM (inactive) | > 10 µM (inactive) | > 10 µM (inactive) | > 10 µM (inactive) | > 10 µM (inactive) | > 10 µM (inactive) | > 10 µM (inactive) | > 10 µM (inactive) | 7.96 µM (inactive) | > 10 µM (inactive) | – | > 10 µM (inactive) | – | > 10 µM (inactive) |
| Cc1cc(C)c(C(=O)c2nnc3ccccc3c2N)c(C)c1 | – | 22.1 µM (inactive) | 32.4 µM (inactive) | 13.6 µM (inactive) | 15.3 µM (inactive) | 28.7 µM (inactive) | 24 µM (inactive) | 27 µM (inactive) | 13.5 µM (inactive) | 24.9 µM (inactive) | 23.1 µM (inactive) | 45.4 µM (inactive) | 16.4 µM (inactive) | 17.4 µM (inactive) | 27.5 µM (inactive) | 24.3 µM (inactive) | – | – | 3.65 µM (inactive) | – |
| OC(C#CCN1CCCC1)(c1ccccc1)c1ccccc1Cl (stereo not given) | 68.5 µM | 37.3 µM (inactive) | 61 µM (inactive) | 19.5 µM (inactive) | 14.8 µM (inactive) | 17.7 µM (inactive) | 36.3 µM (inactive) | > 100 µM (inactive) | 17.7 µM (inactive) | 39.2 µM (inactive) | 23.9 µM (inactive) | 33.7 µM (inactive) | 27.2 µM (inactive) | 27.8 µM (inactive) | 59.4 µM (inactive) | 23.3 µM (inactive) | 22.6 µM (inactive) | 24.7 µM (inactive) | – | > 10 µM (inactive) |
